Test results from US6579900B2, “Anandamide amidase inhibitors as analgesic agents” (priority 1996, dated 2003).
Like-named read-outs stand apart in the source and are kept apart here.

What was measured:
[1] = target: T1, anandamide amidase (Rattus norvegicus, UniProt P97612); assay: Anandamide amidase assay in vitro, crude rat brain homogenate; format: biochemical
T1 construct: Crude rat brain homogenate was obtained by decapitating female adult Sprague-Dawley rats, dissecting the desired tissue and homogenizing; from tissue; host or cells: crude brain homogenate of female adult Sprague-Dawley rats
T1 sequence (P97612 1-579): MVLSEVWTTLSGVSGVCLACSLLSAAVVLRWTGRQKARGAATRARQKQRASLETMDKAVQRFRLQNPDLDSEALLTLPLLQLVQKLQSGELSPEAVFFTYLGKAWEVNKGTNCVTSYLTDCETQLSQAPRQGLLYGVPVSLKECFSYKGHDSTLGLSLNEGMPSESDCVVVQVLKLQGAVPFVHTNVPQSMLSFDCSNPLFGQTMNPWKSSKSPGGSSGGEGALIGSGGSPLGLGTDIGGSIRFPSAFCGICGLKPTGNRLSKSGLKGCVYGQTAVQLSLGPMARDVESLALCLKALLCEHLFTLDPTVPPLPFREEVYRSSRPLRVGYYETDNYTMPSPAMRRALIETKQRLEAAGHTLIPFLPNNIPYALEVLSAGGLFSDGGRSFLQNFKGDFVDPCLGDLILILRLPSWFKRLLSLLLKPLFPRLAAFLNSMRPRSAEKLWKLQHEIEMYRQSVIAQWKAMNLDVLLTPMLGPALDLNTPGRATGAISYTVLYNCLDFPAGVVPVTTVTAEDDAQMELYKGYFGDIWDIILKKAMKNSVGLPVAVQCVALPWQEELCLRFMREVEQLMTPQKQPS
Description: The assay of the anandamide amidase in vitro was performed as described previously (Deutsch, D. G. and S. A. Chin, Biochem. Pharmacol. 46:791-796 (1993)). The indicated amount of each compound was preincubated in a buffer consisting of 300 μg of crude rat brain homogenate protein, 500 μg/ml fatty acid-free bovine serum albumin, in phosphate-buffered saline in a final volume of 1.0 ml, for 10 minutes at 37° C. Crude rat brain homogenate was obtained by decapitating female adult Sprague-Dawley rats, dissecting the desired tissue and homogenizing in five volumes of ice-cold TE (10 mM Tris-HCl, 1 mM EDTA, pH 7.6). Substrate (27.7 μM anandamide+0.2 μCi of 221 Ci/mmol [^3H]anandamide ([arachidonyl-5,6,8,9,11,12,14,15-^3H]ethanolamide)) (obtained from the National Institute on Drug Abuse) was then added and the samples incubated for 10 minutes. The reaction was quenched by the addition of chloroform:methanol (1:1) and enzyme activity was analyzed by TLC as described in Example 1.

[2] = target: T2, anandamide amidase (Mus musculus, UniProt O08914); assay: Anandamide amidase assay in intact neuroblastoma cells ([3H]anandamide levels); format: cell-based
T2 construct: The assay of the anandamide amidase in intact neuroblastoma cells; endogenous in cells; host or cells: N18TG2 neuroblastoma cells
T2 sequence (O08914 1-579): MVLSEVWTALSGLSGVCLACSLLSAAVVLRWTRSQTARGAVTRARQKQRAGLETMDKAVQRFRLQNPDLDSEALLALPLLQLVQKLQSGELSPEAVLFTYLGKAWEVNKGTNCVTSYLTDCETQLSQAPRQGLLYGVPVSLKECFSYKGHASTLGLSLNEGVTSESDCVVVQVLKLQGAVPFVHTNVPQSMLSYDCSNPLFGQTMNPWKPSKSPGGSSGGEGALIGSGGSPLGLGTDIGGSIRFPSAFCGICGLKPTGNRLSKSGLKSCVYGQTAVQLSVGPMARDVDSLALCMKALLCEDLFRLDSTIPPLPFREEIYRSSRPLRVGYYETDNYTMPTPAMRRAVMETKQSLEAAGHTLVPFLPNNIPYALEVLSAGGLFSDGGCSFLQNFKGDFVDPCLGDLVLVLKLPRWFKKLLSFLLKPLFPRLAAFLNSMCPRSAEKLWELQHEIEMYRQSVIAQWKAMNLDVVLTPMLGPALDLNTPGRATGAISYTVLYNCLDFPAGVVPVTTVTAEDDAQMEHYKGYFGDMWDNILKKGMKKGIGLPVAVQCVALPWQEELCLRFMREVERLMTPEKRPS
Description: The experiments were performed with 4×10^6 neuroblastoma cells (N18TG2)/6-cm dish. Experimental cells were incubated in 2 ml of media, consisting of Ham's F-12/Dulbecco's modified Eagle's medium (Life Technologies, Inc.) with penicillin, streptomycin, and gentamicin plus 10% bovine calf serum (HyClone, Logan, Utah), plus the indicated concentration of inhibitor for 20 minutes. All cells were grown at 37° in a humidified atmosphere containing 5% CO2 in air. [^3H]Anandamide (0.2 μCi of 221 Ci/mmol of [^3H]anandamide) was added and the incubation continued for 1 hour. Control cells contained no inhibitor. At the end of the incubation, the cells were washed once with cell culture media and removed from the plates, after a brief incubation with 2 ml of 0.05% trypsin in 0.53 mM EDTA solution at 37° C. The amounts of [^3H]anandamide, [^3H]phospholipids, and [^3H]arachidonate in the cells and media were quantified by liquid scintillation counting of the silica scraped from the appropriate areas of the plate after quenching the reaction with chloroform methanol (1:1), extraction of the sample from the organic phase, and TLC analysis on channeled silica gel-coated plates, with a solvent system consisting of the organic layer of an ethyl acetate:hexane:acetic acid:water (100:50:20:100) mixture.

[3] = system: male MF1 mice; assay: Tail flick test of analgesia ("rat flick test"); settings: mouse, in vivo
[4] = target: T3, CB1 receptor (Rattus norvegicus, UniProt P20272); settings: rat brain membranes, FIG. 3; read-out: Ki in competition with [3H]CP-55940 binding to CB1
T3 construct: brain membranes were prepared from frozen rat brains; from tissue; host or cells: membranes from frozen rat brains
T3 sequence (P20272 whole entry): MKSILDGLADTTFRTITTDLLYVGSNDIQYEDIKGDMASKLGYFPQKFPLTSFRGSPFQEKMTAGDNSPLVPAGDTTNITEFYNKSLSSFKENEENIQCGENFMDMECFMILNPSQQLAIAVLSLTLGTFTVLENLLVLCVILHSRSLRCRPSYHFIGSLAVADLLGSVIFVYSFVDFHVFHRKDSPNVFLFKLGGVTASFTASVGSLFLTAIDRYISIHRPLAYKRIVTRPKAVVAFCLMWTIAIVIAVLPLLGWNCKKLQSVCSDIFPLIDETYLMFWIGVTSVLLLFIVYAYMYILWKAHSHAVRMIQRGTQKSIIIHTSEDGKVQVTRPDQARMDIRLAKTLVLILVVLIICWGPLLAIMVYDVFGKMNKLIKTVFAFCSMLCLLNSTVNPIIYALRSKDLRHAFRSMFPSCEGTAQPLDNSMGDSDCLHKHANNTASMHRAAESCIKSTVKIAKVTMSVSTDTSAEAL
Description: The filters were treated with 0.1% sodium dodecyl sulfate prior to addition of scintillation mixture and counting in a liquid scintillation counter.

[5] = crude rat brain homogenate, 10 min preincubation at 37° C., read-out: IC50 for inhibition of anandamide amidase

**Q.** How did the “concentration at which effective inhibitor of anandamide amidase” value ([1]; crude rat brain homogenate) turn out when CCCCCCCCCCCCCCCCCCCCS(=O)(=O)F [Arachidylsulfonyl fluoride, arachidylsulfonyl fluoride] was run?
**A.** The value was “less than 100 nM”.

**Q.** CCCCCCCCCCCCS(=O)(=O)F [laurylsulfonyl fluoride] was tested. Which IC50 [1, 5] did it give?
**A.** The IC50 was under 10 nM.

**Q.** Which IC50 [1, 5] does the source give for CCCCCCCCCCCCCCS(=O)(=O)F [myristylsulfonyl fluoride] here?
**A.** The IC50 was under 10 nM.

**Q.** With CCCCCCCCCCCCCCCCS(=O)(=O)F [palmitylsulfonyl fluoride] as the molecule, how does the “increase of the level of undegraded anandamide” value ([2]; 10 nM inhibitor, intact neuroblastoma cells (N18TG2)) read?
**A.** Its value is 55 fold.

**Q.** What about the IC50 [1] of the same molecule?
**A.** The IC50 was under 10 nM.

**Q.** And the “analgesia (in words)” value [3]?
**A.** Its value is “induce analgesia”.

**Q.** Which “concentration required to achieve comparable levels of anandamide amidase inhibition” value ([2]; comparable to over 50% of radioactivity in anandamide, N18TG2 cells) does the source give for O=S(=O)(F)Cc1ccccc1 [phenylmethylsulfonyl fluoride, reference compound] here?
**A.** Its value is “greater than 10 micromolar”.

**Q.** CCCCCCCCCCCCCCCCCCS(=O)(=O)F [stearylsulfonyl fluoride] was tested. Which IC50 [1, 5] did it give?
**A.** The IC50 was under 10 nM.

**Q.** How did the Ki [4] turn out when arachidonyl trifluoromethyl ketone was run?
**A.** The Ki was 1320 nM.
